From patent US5045543A, “5-amino or substituted amino 1,2,3-triazoles useful as antimetastatic agents” (Merck & Co., Inc., priority 1989, dated 1991)
In brackets after ≈: the same amount, converted by molar mass.

What was measured:
[1] = system: PAPp26 Murine Keratinocytes; settings: proliferation assay
Protocol: In these experiments Murine keratinocyte transformed cell line PAPp26 was cultured in Dulbecco's modified Eagle's medium with 10% fetal calf serum at 37° C., 5% CO2. Each well of a 96 well plate was seeded with 2000 cells in 200 μl of each drug dilution in duplicate. A plate was stopped and fixed for each time point, stained with Giemsa and then read in a Titertek plate reader at 650 nm, and the absorbances were calibrated with known cell numbers on control plates.

psoriasis = settings: cited from earlier work; for side effects in psoriasis treatment: in vivo; for efficacy in psoriasis: mycophenolic acid given orally; for clearing of psoriatic lesions: used experimentally
[2] = system: pig skin epidermal basal cells (keratinocytes); test: UV induced hyperproliferation in pig skin in vivo (topical antiproliferative activity)
Protocol: The topical antiproliferative activities, along with in vitro antiproliferative activities against human keratinocytes and fibroblasts, provide the biological data in support of the claimed utility:
In one experiment, a 20 kg pig was sedated and multiple areas of clipped skin were exposed to uv radiation sufficient to provoke a moderate hyperproliferative response within several days of exposure. On days 0, 1, 2 and 3 replicate irradiated sites were treated topically with Compound A in several vehicles or solvents. Topical preparations included a 2% drug in Gel #1, a combination of isopropyl myristate:Crodamol:ethanol, 1:1:2, or DMSO. The hyperproliferative response of the skin to uv was assessed on day 4 by injecting ^3 H-thymidine intradermally, and, 1 hour later, removing the sites by punch biopsy and processing the samples for autoradiography. Such autoradiographs indicate the number of epidermal cells in S phase synthesizing DNA and this is a common tool used by dermatologists to assess inhibition of proliferation in vivo. A single injection of methotrexate, 4 hours prior to ^3 H-thymidine injection was used as a positive control for inhibition of DNA synthesis. A labelling index, L.I., which is the percent of the total number of epidermal basal cells (keratinocytes) counted showing label incorporation. Four days after exposure to uv, the L.I. of pig skin increased from 7.6% to 20.8% (normal human skin ca. 2%, psoriatic lesions ca. 25%, for comparison).

SMILES	ED50 PAPp26 [1] [µg/mL]	side effects in psoriasis treatment (psoriasis)	efficacy in psoriasis (psoriasis)	further results
NC(=O)c1nnn(Cc2cc(Cl)c(C(=O)c3ccc(Cl)cc3)c(Br)c2)c1N [(G)]	2 (≈ 4.26 µM)	–	–	–
Cc1cc(Cn2nnc(C(N)=O)c2N)cc(Cl)c1C(=O)c1ccc(C(F)(F)F)cc1 [(E)]	2 (≈ 4.57 µM)	–	–	–
Cc1cc(Cn2nnc(C(N)=O)c2N)cc(Cl)c1Oc1ccc(Cl)cc1 [(L)]	2 (≈ 5.1 µM)	–	–	–
NC(=O)c1nnn(Cc2cc(Cl)c(Oc3ccc(Br)cc3)c(Cl)c2)c1N [(H)]	1 to 2 (≈ 2.19 to 4.38 µM)	–	–	–
NC(=O)c1nnn(Cc2ccc(Sc3ccc(Cl)cc3)c(Cl)c2)c1N [(C)]	1 to 2 (≈ 2.54 to 5.07 µM)	–	–	–
CN(Cc1cnc2nc(N)nc(N)c2n1)c1ccc(C(=O)N[C@@H](CCC(=O)O)C(=O)O)cc1 [Methotrexate, methotrexate, reference compound]	–	unacceptable side effects due to toxicity	effective in treating the disease	UV induced hyperproliferation, % Inhibition ([2]; i.d. injection): 93%; Labelled Cells ([2]; i.d., single injection 4 hours prior to 3H-thymidine, of 1175 basal cells counted): 100; LI (labelling index) ([2]; i.d., uv exposed Gel #1 control 20.8, normal 7.6): 8.5%
NC(=O)c1nnn(Cc2cc(Cl)c(Oc3ccc([N+](=O)[O-])cc3)c(Cl)c2)c1N [(K)]	2 (≈ 4.73 µM)	–	–	–
NC(=O)c1nnn(Cc2ccc(Sc3ccc(Cl)cc3)c(C(F)(F)F)c2)c1N [(D)]	1 to 2 (≈ 2.34 to 4.67 µM)	–	–	–
COc1c(C)c2c(c(O)c1C/C=C(\C)CCC(=O)O)C(=O)OC2 [Mycophenolic acid]	–	unacceptable side effects	controls psoriasis by causing remission when given orally	clearing of psoriatic lesions (psoriasis): success in clearing lesions
O=c1[nH]cc(F)c(=O)[nH]1 [fluorouracil]	–	unacceptable side effects due to toxicity	effective in treating the disease	–
Nc1nc2nc[nH]c2c(=S)[nH]1 [thioguanine]	–	unacceptable side effects due to toxicity	effective in treating the disease	clearing of psoriatic lesions (psoriasis): success in clearing lesions
NC(=O)c1nnn(Cc2cc(Cl)c(C(=O)c3ccc(Br)cc3)c(Cl)c2)c1N [(J)]	1 to 2 (≈ 2.13 to 4.26 µM)	–	–	–
N#Cc1ccc(C(=O)c2c(Cl)cc(Cn3nnc(C(N)=O)c3N)cc2Cl)cc1 [(F)]	2 (≈ 4.82 µM)	–	–	–
O=C(O)C[C@H](NC(=O)CP(=O)(O)O)C(=O)O [N-phosphonacetyl-L-aspartate]	–	unacceptable side effects due to toxicity	effective in treating the disease	–
NC(=O)c1nnn(Cc2cc(Cl)c(C(=O)c3ccc(Cl)cc3)c(Cl)c2)c1N [(B)]	2 (≈ 4.71 µM)	–	–	–
